Laboratory results: US9481676B2, “Azepino[4,5-B]indoles and methods of use” (Medivation Technologies, Inc., priority 2008, dated 2016)

How the values were obtained:
[1] = biological target: T1, human recombinant histamine H1 receptor (Homo sapiens, UniProt P35367); assay: Histamine H1 radioligand binding ([3H]Pyrilamine); settings: compound at 1 μM; read-out: Histamine Binding (1 μM) H1, percent inhibition of specific binding
T1 construct: expressed in transfected cells; host or cells: CHO cells
Procedure, shortened: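 Membranes from CHO cells expressing the receptor were incubated with compound and 1.2 nM [3H]pyrilamine for 180 min at 25 °C in 50 mM Tris-HCl pH 7.4 with MgCl2, NaCl and sucrose; 1 μM pyrilamine defined non-specific binding. Filter-bound radioactivity was counted.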

[2] = biological target: T2, human recombinant adrenergic α2A receptor (Homo sapiens, UniProt P08913); assay: Adrenergic alpha2A radioligand binding ([3H]MK-912); settings: compound at 1 μM; read-out: Adrenergic (1 μM) α2A, percent inhibition of specific binding
T2 construct: expressed in transfected cells; host or cells: insect Sf9 cells
T2 sequence (P08913 1-465): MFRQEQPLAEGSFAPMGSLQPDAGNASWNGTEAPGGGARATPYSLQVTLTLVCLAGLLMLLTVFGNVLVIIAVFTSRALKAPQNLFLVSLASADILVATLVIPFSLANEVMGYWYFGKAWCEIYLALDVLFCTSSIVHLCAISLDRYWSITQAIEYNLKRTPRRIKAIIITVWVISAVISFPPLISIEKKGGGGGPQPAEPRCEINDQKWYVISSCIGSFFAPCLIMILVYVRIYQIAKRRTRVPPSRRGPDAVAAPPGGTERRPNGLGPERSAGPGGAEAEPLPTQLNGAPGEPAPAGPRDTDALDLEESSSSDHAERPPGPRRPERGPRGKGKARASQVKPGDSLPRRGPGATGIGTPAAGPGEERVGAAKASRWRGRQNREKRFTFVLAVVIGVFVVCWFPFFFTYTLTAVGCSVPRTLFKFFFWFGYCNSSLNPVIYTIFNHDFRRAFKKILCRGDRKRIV
Procedure, shortened: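 Membranes of Sf9 cells expressing human recombinant α2A receptor were incubated with compound and 1 nM [3H]MK-912 for 60 min at 25 °C in 50 mM Tris-HCl pH 7.4, 12.5 mM MgCl2, 2 mM EDTA. Nonspecific binding: 10 μM WB-4101.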

[3] = biological target: T3, human recombinant dopamine D2L receptor (Homo sapiens, UniProt P14416); assay: Dopamine D2L radioligand binding ([3H]Spiperone); settings: compound at 1 μM; read-out: Dopamine (1 μM) D2L, percent inhibition of specific binding
T3 construct: expressed in transfected cells; host or cells: CHO cells
Procedure, shortened: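 Human recombinant D2L receptor from CHO cells, in Tris-HCl buffer pH 7.4 with ascorbic acid, BSA and 150 mM NaCl; compounds at 1 μM or lower (1% DMSO) incubated with 0.16 nM [3H]spiperone, 120 min, 25° C. Nonspecific binding by 10 μM haloperidol; filter counting; % inhibition of specific binding.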

[4] = biological target: T4, human recombinant serotonin (5-Hydroxytryptamine) 5-HT2C receptor (Homo sapiens, UniProt P28335); assay: Serotonin 5-HT2C radioligand binding ([3H]Mesulergine); settings: compound at 1 μM; read-out: Serotonin (1 μM) 5-HT2C, percent inhibition of specific binding
T4 construct: expressed in transfected cells; host or cells: CHO-K1 cells
T4 sequence (P28335 33-458): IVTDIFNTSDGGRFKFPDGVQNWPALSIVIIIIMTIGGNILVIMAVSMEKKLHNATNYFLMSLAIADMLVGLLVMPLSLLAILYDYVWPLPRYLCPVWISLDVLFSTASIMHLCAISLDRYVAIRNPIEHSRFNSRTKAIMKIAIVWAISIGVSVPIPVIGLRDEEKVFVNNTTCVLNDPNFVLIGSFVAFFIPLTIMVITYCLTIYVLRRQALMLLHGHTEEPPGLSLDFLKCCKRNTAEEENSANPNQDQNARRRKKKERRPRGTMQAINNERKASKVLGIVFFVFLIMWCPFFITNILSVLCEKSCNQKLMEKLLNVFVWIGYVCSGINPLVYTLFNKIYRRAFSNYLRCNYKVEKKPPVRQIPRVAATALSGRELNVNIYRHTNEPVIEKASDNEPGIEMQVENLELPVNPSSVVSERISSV
Procedure, shortened: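 Membranes from CHO-K1 cells expressing human 5-HT2C, incubated with 1 nM [3H]mesulergine for 60 min at 25 °C in 50 mM Tris-HCl pH 7.4 with ascorbic acid and pargyline.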

T3 sequence (P14416 whole entry): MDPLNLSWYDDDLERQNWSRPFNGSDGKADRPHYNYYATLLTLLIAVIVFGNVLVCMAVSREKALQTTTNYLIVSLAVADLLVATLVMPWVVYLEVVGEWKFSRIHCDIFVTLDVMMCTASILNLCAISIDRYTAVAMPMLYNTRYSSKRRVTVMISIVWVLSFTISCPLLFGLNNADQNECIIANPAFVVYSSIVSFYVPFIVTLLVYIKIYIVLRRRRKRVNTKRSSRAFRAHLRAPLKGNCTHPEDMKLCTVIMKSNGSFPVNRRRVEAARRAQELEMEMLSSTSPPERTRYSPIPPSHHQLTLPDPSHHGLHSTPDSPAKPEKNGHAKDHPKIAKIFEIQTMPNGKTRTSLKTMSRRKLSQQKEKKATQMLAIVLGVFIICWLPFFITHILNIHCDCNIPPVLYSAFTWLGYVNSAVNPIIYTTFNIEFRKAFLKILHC
T1 sequence (P35367 whole entry): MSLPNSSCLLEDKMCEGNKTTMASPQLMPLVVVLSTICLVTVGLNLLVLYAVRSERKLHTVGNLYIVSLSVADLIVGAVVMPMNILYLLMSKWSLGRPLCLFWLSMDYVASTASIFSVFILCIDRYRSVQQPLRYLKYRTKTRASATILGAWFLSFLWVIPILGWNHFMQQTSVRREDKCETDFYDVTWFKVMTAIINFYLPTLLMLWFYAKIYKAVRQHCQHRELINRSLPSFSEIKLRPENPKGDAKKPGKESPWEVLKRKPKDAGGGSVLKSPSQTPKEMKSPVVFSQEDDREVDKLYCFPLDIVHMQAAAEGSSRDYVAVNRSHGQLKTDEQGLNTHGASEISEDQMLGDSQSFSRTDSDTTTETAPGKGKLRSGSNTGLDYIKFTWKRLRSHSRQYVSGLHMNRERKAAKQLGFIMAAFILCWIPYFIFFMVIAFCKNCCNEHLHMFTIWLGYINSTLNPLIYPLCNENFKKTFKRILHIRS

Structure (SMILES) | inhibition at 1 µM [1] | inhibition at 1 µM [2] | inhibition at 1 µM [3] | inhibition at 1 µM [4]
Cc1ccc2c(c1)c1c(n2CCc2ccccc2)CCN(C)CC1 [Compound No. 62, 1,2,3,4,5,6-hexahydro-3,9-dimethyl-6-phenethylazepino[4,5-b]indole] | 98% | 11% | 7% | 101%
Cc1ccc2c(c1)c1c(n2CCc2ccccc2F)CCN(C)CC1 [Compound No. 63, 6-(2-fluorophenethyl)-1,2,3,4,5,6-hexahydro-3,9-dimethylazepino[4,5-b]indole] | 99% | 96% | 61% | 5%
COc1ccc(C(O)Cn2c3c(c4cc(Cl)ccc42)CCN(C)CC3)cc1F (stereo not drawn) [Compound No. 67, 2-(9-chloro-2,3,4,5-tetrahydro-3-methylazepino[4,5-b]indol-6(1H)-yl)-1-(3-fluoro-4-methoxyphenyl) ethanol] | 100% | 102% | 50% | 93%
COc1ccc(C(O)Cn2c3c(c4cc(C)ccc42)CCN(C)CC3)cc1F (stereo not drawn) [Compound No. 68, 1-(3-fluoro-4-methoxyphenyl)-2-(2,3,4,5-tetrahydro-3,9-dimethylazepino[4,5-b]indol-6(1H)-yl)ethanol] | 102% | 99% | 40% | 95%
Cc1ccc2c(c1)c1c(n2CCc2ccccc2Cl)CCN(C)CC1 [Compound No. 69, 6-(2-chlorophenethyl)-1,2,3,4,5,6-hexahydro-3,9-dimethylazepino[4,5-b]indole] | 2% | 8% | -2% | -1%
CN1CCc2c(n(CC(=O)N3CCNCC3)c3ccc(Cl)cc23)CC1 [Compound No. 72, 2-(9-chloro-2,3,4,5-tetrahydro-3-methylazepino[4,5-b]indol-6(1H)-yl)-1-(piperazin-1-yl)ethanone] | -12% | -6% | -18% | 53%
CN1CCc2c(n(CC(=O)Nc3ccccc3)c3ccc(Cl)cc23)CC1 [Compound No. 73, 2-(9-chloro-2,3,4,5-tetrahydro-3-methylazepino[4,5-b]indol-6(1H)-yl)-N-phenylacetamide] | 18% | 28% | -14% | 11%
CN1CCc2c(n(CC(=O)N(C)C3CCCCC3)c3ccc(Cl)cc23)CC1 [Compound No. 74, 2-(9-chloro-2,3,4,5-tetrahydro-3-methylazepino[4,5-b]indol-6(1H)-yl)-N-cyclohexyl-N-methylacetamide] | 25% | 19% | -2% | 1%
CN1CCc2c(n(CC(=O)OCc3ccccc3)c3ccc(Cl)cc23)CC1 [Compound No. 75, Benzyl-2-(9-chloro-2,3,4,5-tetrahydro-3-methylazepino[4,5-b]indol-6(1H)-yl)acetate] | 20% | 7% | 2% | 13%
Cc1ccc2c(c1)c1c(n2/C=C/c2ccccc2)CCN(C)CC1 [Compound No. 229, (E)-3,9-dimethyl-6-styryl-1,2,3,4,5,6-hexahydroazepino[4,5-b]indole] | 100% | 100% | 68% | 98%
COc1ccc(/C=C/n2c3c(c4cc(C)ccc42)CCN(C)CC3)c(F)c1 [Compound No. 230, (E)-6-(2-fluoro-4-methoxystyryl)-3,9-dimethyl-1,2,3,4,5,6-hexahydroazepino[4,5-b]indole] | 95% | 102% | 48% | 96%
Cc1ccc2c(c1)c1c(n2CC(=O)N(C)C2CCCCC2)CCN(C)CC1 [Compound No. 232, N-cyclohexyl-2-(3,9-dimethyl-2,3,4,5-tetrahydroazepino[4,5-b]indol-6(1H)-yl)-N-methylacetamide] | 95% | 90% | 8% | 93%
Cc1ccc2c(c1)c1c(n2/C=C/c2ccccc2F)CCN(C)CC1 [Compound No. 233, (E)-6-(2-fluorostyryl)-3,9-dimethyl-1,2,3,4,5,6-hexahydroazepino[4,5-b]indole] | 98% | 97% | 73% | 100%
CN1CCc2c(n(/C=C/c3ccc(F)cc3)c3ccc(Cl)cc23)CC1 [Compound No. 234, (E)-9-chloro-6-(4-fluorostyryl)-3-methyl-1,2,3,4,5,6-hexahydroazepino[4,5-b]indole] | 99% | 98% | 71% | 98%
Cc1ccc2c(c1)c1c(n2/C=C/c2ccc(Cl)cc2)CCN(C)CC1 [Compound No. 235, (E)-6-(4-chlorostyryl)-3,9-dimethyl-1,2,3,4,5,6-hexahydroazepino[4,5-b]indole] | 97% | 95% | 42% | 98%
CN1CCc2c(n(/C=C/c3ccc(F)c(F)c3)c3ccc(Cl)cc23)CC1 [Compound No. 236, (E)-9-chloro-6-(3,4-difluorostyryl)-3-methyl-1,2,3,4,5,6-hexahydroazepino[4,5-b]indole] | 99% | 89% | 34% | 100%
CN1CCc2c(n(CCc3ccccc3F)c3ccccc23)CC1 [Compound No. 237, 6-(2-fluorophenethyl)-3-methyl-1,2,3,4,5,6-hexahydroazepino[4,5-b]indole] | 96% | 98% | 50% | 100%
C/C(=C\n1c2c(c3cc(C)ccc31)CCN(C)CC2)c1ccc(Cl)cc1Cl [Compound No. 238, (E)-6-(2-(2,4-dichlorophenyl)prop-1-enyl)-3,9-dimethyl-1,2,3,4,5,6-hexahydroazepino[4,5-b]indole] | 98% | 98% | 7% | 100%
C/C(=C\n1c2c(c3cc(Cl)ccc31)CCN(C)CC2)c1ccc(Cl)cc1Cl [Compound No. 239, (E)-9-chloro-6-(2-(2,4-dichlorophenyl)prop-1-enyl)-3-methyl-1,2,3,4,5,6-hexahydroazepino[4,5-b]indole] | 91% | 93% | 9% | 97%
CN1CCc2c(n(C#Cc3ccc(F)cc3)c3ccc(Cl)cc23)CC1 [Compound No. 281, 9-chloro-6-((4-fluorophenyl)ethynyl)-3-methyl-1,2,3,4,5,6-hexahydroazepino[4,5-b]indole] | 56% | 92% | 40% | 98%
CN1CCc2c(n(C#Cc3ccc(Cl)cc3)c3ccc(Cl)cc23)CC1 [Compound No. 282, 9-chloro-6-((4-chlorophenyl)ethynyl)-3-methyl-1,2,3,4,5,6-hexahydroazepino[4,5-b]indole] | 99% | 95% | 1% | 103%
